Common to all, as to assay type: in vivo, mice (Std:ddY, male)
The test system of experiment [1] is carrageenin-induced paw edema. Description: Antiinflammatory activity by the carrageenin-induced hind paw edema. Conditions: mouse, 30 mg/kg p.o., mean ± standard error, n = 6. The method, then: Measurement of Antiinflammatory Activity by the Carrageenin-Induced Hind Paw Edema
Std:ddY Strain male mice (20-25 g) were fasted for one day before the experiment, and were used. After test compounds shown in Table 1 was formed to a salt with tartaric acid, this salt was dissolved in sterilized and distilled water at the rate of 30 mg/10 ml to give the test compound solution. As a control, sterilized and distilled water was used. One hour after the oral administration of test compound solutions, 25 μl of λ-carrageenin suspended in 0.9% physiological saline solution (0.5 mg/25 μl) was injected s.c. under the plantar surface of the right hind paw of a mouse and 25 μl of 0.9% physiological saline solution was injected s.c. under the plantar surface of the left hind paw of the same mouse. Three hours and five hours after carrageenin injection, the […] of the paw was measured with a dial gauge calliper. To the control group, One hour after the oral administration of sterilized and distilled water at the rate of 10 ml/kg, 25 μl of λ-carrageenin (0.5 mg/25 μl) suspended in 0.9% physiological saline solution was injected s.c. under the plantar surface of the right hind paw of a mouse and 25 μl of 0.9% physiological saline solution was injected s.c. under the plantar surface of the left hind paw of the same mouse and the later operation was done in the same manner as in the test compound dosing group mentioned above. The results were described as a swelling rate (%) obtained from the following equation.
Swelling rate (%)=(R-L)×100/L
R: the thickness of the right hind paw
L: the thickness of the left hind paw
(In the carrageenan paw model, swelling and tenderness develop within hours.)

In experiment [2] the test system is nociceptive response (licking). Description: Analgesic activity by the hot-plate method. Conditions: mouse, 52° C. plate, solution 10 mg/10 ml, mean ± standard error. On the procedure: Measurement of Analgesic Activity by the Hot-Plate Method
Std:ddY Strain male mice (20-25 g) were fasted for one day before the experiment, and were used. After compounds shown in Table 1 were formed to the tartaric acid salts, these compounds were dissolved in 0.9% physiologocal saline solution at the rate of 10 mg/10 ml, respectively and these solution were used as test compound solution. In a control, 0.9% physiological saline solution was used. Mice were placed on a cyrindric hot plate (diameter: 22 cm, height: 11 cm) made of copper which was fixed in a water bath adjusted to 52° C. so that each animal's four paws came into contact with the plate and the time taken to show the nociceptive response (licking) as an index of pain was measured. Mice showing response latency above 25 seconds were excluded from the experiment. To prevent a burn damage of mouse tissue by heating, cutoff time of 50 seconds was defined. The results were described as an inhibition rate (%) obtained from the following equation.
Inhibition rate (%)=(A-B)×100/(50-B)
A: Response latency (seconds) after the administration of test compound solution
B: Response latency (seconds) before the administration of test compound solution

Experiment [3] concerns pain threshold (tail-pressure). Description: Analgesic activity by the tail-pressure method (s.c.). As to conditions: mouse, 10 mg/10 ml at 10 ml/kg s.c., 1 hour after administration, mean ± standard error. The method, then: (1) Measurement of Analgesic Activity by the Tail-Pressure Method
Std:ddY Strain male mice (20-25 g) were fasted for one day before the experiment, and were used. After test compounds shown in Table 1 was formed to a salt with tartaric acid, this salt was dissolved in 0.9% physiological saline solutions at the rate of 10 mg/10 ml to give the test compoun d solution . As a control, 0.9% physiological saline solution was used. A tail-pressure apparatus was used in this experiments. Before the administration of test compounds, the pain threshold was measured twice at intervals of 30 minutes and those mice indicating a pain threshold of 50 to 100 mmHg were selected and used. The pain threshold of each mouse was measured at 1 hour after test compound solution mentioned above was administered at 10 ml/kg, s.c. 0.9% Physiological saline solution as a control was administered at 10 ml/kg, s.c . The results were described as an inhibition rate (%) obtained from the following equation. Cutoff level of pressure was defined to be 230 mmHg for the prevention of the damage of mouse tail.
Inhibition rate (%)=(A-B)×100/(C-B)
A: Pain threshold (mmHg) after the administration of test compound solution
B: Pain threshold (mmHg) before the administration of test compound solution
C: Cutoff pressure (230 mmHg)

Experiment [4] concerns pain threshold (tail-pressure). Put plainly: Tail-pressure method, experiment combined with morphine antagonist (levallorphan). Conditions: mean ± standard error. The method, then: (4) Experiment Combined with Morphine Antagonist
Std:ddY Strain male mice (20-25 g) were fasted for one day before the experiment, and were used. In this experiment, the tartaric acid salt of a compound of number (2) in Table 1, morphine hydrochloride and levallorphan hydrochloride of an opioid antagonist were used. The tartaric acid salt of a compound of number (2) was dissolved in 0.9% physiological saline solution at the rate of 10 mg/2 ml. Morphine hydrochloride was dissolved in 0.9% physiological saline solution at the rate of 10 mg/2 ml. Levallorphan hydrochloride was dissolved in 0.9% physiological saline solution at the rate of 1 mg/10 ml. As a control, 0.9% physiological saline solution was used. A tail-pressure apparatus was used in this experiments. Before the administration of levallorphan hydrochloride, the pain threshold was measured twice at intervals of 30 minutes and those mice indicating a pain threshold of 50 to 100 mmHg were selected and used. Levallorphan hydrochloride solution mentioned above was administered s.c. at the rate of 10 ml/kg and, 30 minutes later, the above tartaric acid salt solution compound of number (2) or morphine hydrochloride solution was injected i.v. at the rate of 2 ml/kg, respectively. Each pain threshold was measured 10, 20 and 30 minutes after an intravenous injection. In control group, 0.9% physiological saline solution was injected i.v. at the rate of 2 ml/kg at 30 minutes after s.c. administration at 10 ml/kg of 0.9% physiological saline solution. In the single administration group of levallorphan hydrochloride, levallorphan hydrochloride solution mentioned above was administered s.c. at the rate of 10 ml/kg and, 30 minutes later, 0.9% physiological saline solution was injected i.v. at the rate of 2 ml/kg. The results were described in Table 10 as an inhibition rate (%) indicating in the preceding paragraph (1).

In experiment [5] the test system is pain threshold (tail-pressure). Description: Tail-pressure method, comparison with morphine (i.v.). As to conditions: mean ± standard error. The method, then: (2) Comparison with Morphine
Std:ddY Strain male mice (20-25 g) were fasted for one day before the experiment, and were used. In this experiment, the tartaric acid salt of a compound of number (2) in Table 1 and morphine hydrochloride as a possitive control were used. This tartaric acid salt was dissolved in 0.9% physiological saline solution at the rates of 5 mg/2 ml, 3 mg/2 ml and 1 mg/2 ml. Morphine hydrochloride was dissolved in 0.9% physiological saline solution at the rates of 5 mg/2 ml, 3 mg/2 ml and 1 mg/2 ml. As a negative control, 0.9% phisiological saline solution was used. A tail-pressure apparatus was used in this experiments. Before the administration of test compounds, the pain threshold was measured twice at intervals of 30 minutes and those mice indicating a pain threshold of 50 to 100 mmHg were selected and used. The pain threshold of each mouse was measured at 10, 20 and 30 minutes after test compound solution mentioned above was administered at 2 ml/kg, i.v. 0.9% Physiological saline solution as a control was administered i.v. The results were described as an inhibition rate (%) indicating in the preceding paragraph (1).

The test system of experiment [6] is pain threshold (tail-pressure). Put plainly: Tail-pressure method, experiment combined with morphine administration. Conditions: mean ± standard error, n = 7. On the procedure:
(3) Experiment Combined with Morphine Administration
Std:ddY Strain male mice (20-25 g) were fasted for one day before the experiment, and were used. In this experiment, the tartaric acid salt of a compound of number (2) in Table 1 and morphine hydrochloride were used. The tartaric acid salt of a compound of number (2) was dissolved in 0.9% physiological saline solution at the rate of 7 mg/10 ml. Morphine hydrochloride was dissolved in 0.9% physiological saline solution at the rates of 5 mg/2 ml, 3 mg/2 ml and 1 mg/2 ml. As a control, 0.9% phisiological saline solution was used. A tail-pressure apparatus was used in this experiments. Before the administration of test compounds, the pain threshold was measured twice at intervals of 30 minutes and those mice indicating a pain threshold of 50 to 100 mmHg were selected and used. Mice was divided in the following four groups, (i) control group, (ii) the administration group of the tartaric acid salt of a compound of number (2), (iii) the administration group of morphine hydrochloride and (iv) the combined administration group with the tartaric acid salt of a compound of number (2) and morphine hydrochloride. In the administration group of the tartaric acid salt of a compound of number (2), 0.9% physiological saline solution of this tartaric acid salt mentioned above was injected s.c. at the rate of 10 ml/kg and, 30 minutes later, 0.9% physiological saline solution was injected i.v. at the rate of 2 ml/kg. In the administration group of morphine hydrochloride, 0.9% physiological saline solution was injected s.c. at the rate of 10 ml/kg and, 30 minutes later, the above physiological saline solution of morphine hydrochloride was injected i.v. at the rate of 2 ml/kg. In the combined administration group with the tartaric acid salt of a compound of number (2) and morphine hydrochloride,the above physiological saline solution of the tartaric acid salt of a compound of number (2) was injected s.c. at the rate of 10 ml/kg and, 30 minutes later, the above physiological saline solution of morphine hydrochloride was injected i.v. at the rate of 2 ml/kg. In control group, 0.9% physiological saline solution was injected s.c. at the rate of 10 ml/kg and, 30 minutes later, 0.9% physiological saline solution was injected i.v. at the rate of 2 ml/kg. Each pain threshold was measured 10, 20 and 30 minutes after an intravenous injection. The results were described in Table 9 as an inhibition rate (%) indicating in the preceding paragraph (1).

With “15-O-acetyl-8-deoxy-14-O-p-chlorobenzoylaconine [(8)]”, the Swelling rate in experiment [1] (3 hour) worked out at 41 ± 5%; in experiment [1] (5 hour), 55 ± 8%. The “Inhibition rate (hot-plate method)” value in experiment [2] is 48 ± 8%. Also, the “Inhibition rate (tail-pressure method)” value in experiment [3] was 26 ± 7%.

Take “15-O-acetyl-8-deoxy-14-O-p-chlorobenzoylmesaconine [(7)]”: the Swelling rate in experiment [1] (3 hour) is 43 ± 8%; in experiment [1] (5 hour) it was 48 ± 8%. In experiment [2], the “Inhibition rate (hot-plate method)” value is given as 49 ± 11%. For the same compound, the “Inhibition rate (tail-pressure method)” value in experiment [3] is 35 ± 10%.

With `C=CCN1CC[C@]23CCCC[C@H]2[C@H]1Cc1ccc(O)cc13` [levallorphan], the Inhibition rate in experiment [4] (levallorphan 1 mg/kg s.c. alone, 10 min after i.v. injection) is on record as 3 ± 4%; in experiment [4] (levallorphan 1 mg/kg s.c. alone, 20 min after i.v. injection), -3 ± 4%; in experiment [4] (levallorphan 1 mg/kg s.c. alone, 30 min after i.v. injection) it was 1 ± 3%.

Turning to `CN1CC[C@]23c4c5ccc(O)c4O[C@H]2[C@@H](O)C=C[C@H]3[C@H]1C5` [morphine, reference compound], the Inhibition rate turned out to be 1 ± 2% in experiment [5] (1 mg/kg i.v., 10 minutes); 2 ± 2% in experiment [5] (1 mg/kg i.v., 20 minutes); 2 ± 1% in experiment [5] (1 mg/kg i.v., 30 minutes); 13 ± 7% in experiment [5] (3 mg/kg i.v., 10 minutes); 18 ± 10% in experiment [5] (3 mg/kg i.v., 20 minutes); 12 ± 8% in experiment [5] (3 mg/kg i.v., 30 minutes). Moreover, the Inhibition rate worked out at 38 ± 12% in experiment [5] (5 mg/kg i.v., 10 minutes); 30 ± 10% in experiment [5] (5 mg/kg i.v., 20 minutes); 29 ± 12% in experiment [5] (5 mg/kg i.v., 30 minutes); 10 ± 1% in experiment [4] (10 mg/kg i.v., with levallorphan 1 mg/kg s.c. 30 minutes before, 10 min); 10 ± 7% in experiment [4] (10 mg/kg i.v., with levallorphan 1 mg/kg s.c. 30 minutes before, 20 min); 20 ± 6% in experiment [4] (10 mg/kg i.v., with levallorphan 1 mg/kg s.c. 30 minutes before, 30 min). The Inhibition rate was 70 ± 13% in experiment [4] (10 mg/kg i.v., without levallorphan, 10 min); 73 ± 9% in experiment [4] (10 mg/kg i.v., without levallorphan, 20 min); 65 ± 12% in experiment [4] (10 mg/kg i.v., without levallorphan, 30 min); 2 ± 2% in experiment [6] (morphine 1 mg/kg i.v. alone, 10 min); 3 ± 4% in experiment [6] (morphine 1 mg/kg i.v. alone, 20 min); 1 ± 2% in experiment [6] (morphine 1 mg/kg i.v. alone, 30 min). In addition, the Inhibition rate in experiment [6] (morphine 3 mg/kg i.v. alone, 10 min) worked out at 11 ± 8%; in experiment [6] (morphine 3 mg/kg i.v. alone, 20 min), 15 ± 9%; in experiment [6] (morphine 3 mg/kg i.v. alone, 30 min), 10 ± 6%; in experiment [6] (morphine 5 mg/kg i.v. alone, 10 min), 36 ± 10%; in experiment [6] (morphine 5 mg/kg i.v. alone, 20 min) it was 32 ± 11%; in experiment [6] (morphine 5 mg/kg i.v. alone, 30 min) it was 26 ± 8%.

The values are drawn from patent publication US5770604A, “Aconitine compound and an antipyretic/analgesic/anti-inflammatory agent” (priority 1994, dated 1998).
